Laboratory results from article PMC9604400, “Synthesis, Anticancer and Antitubercular Properties of New Chalcones and Their Nitrogen-Containing Five-Membered Heterocyclic Hybrids Bearing Sulfonamide Moiety” (International Journal of Molecular Sciences, 2022).
Values after ≈ are worked out from the molar mass of the structure shown.

Experiments:
IGROV1 = experiment: NCI-60 screen (SRB), ovarian cancer; settings: Homo sapiens; for IC50: IGROV-1; for CC50: IGROV-1, read-out: LC50
MCF7 = experiment: NCI-60 screen (SRB), breast cancer; settings: Homo sapiens; for IC50: MCF7; for CC50: MCF7, read-out: LC50
CAKI-1 = experiment: NCI-60 screen (SRB), renal cancer; settings: Homo sapiens; for IC50: CAKI-1; for CC50: CAKI-1, read-out: LC50
SW-620 = experiment: NCI-60 screen (SRB), colon cancer; settings: for IC50 / CC50: Homo sapiens; for IC50: SW-620; for CC50: SW-620, read-out: LC50
OVCAR-4 = experiment: NCI-60 screen (SRB), ovarian cancer; settings: Homo sapiens; for IC50: OVCAR-4; for CC50: OVCAR-4, read-out: LC50
OVCAR-5 = experiment: NCI-60 screen (SRB), ovarian cancer; settings: Homo sapiens; for IC50: OVCAR-5; for CC50: OVCAR-5, read-out: LC50
SK-MEL-28 = experiment: NCI-60 screen (SRB), melanoma; settings: Homo sapiens; for IC50: SK-MEL-28; for CC50: SK-MEL-28, read-out: LC50
U251 = experiment: NCI-60 screen (SRB), CNS cancer; settings: Homo sapiens; for IC50: U-251; for CC50: U-251, read-out: LC50
HL-60(TB) = experiment: cells; settings: Homo sapiens; for IC50: HL-60; for CC50: HL-60, read-out: LC50
DU-145 = experiment: NCI-60 screen (SRB), prostate cancer; settings: Homo sapiens; for IC50: DU-145; for CC50: DU-145, read-out: LC50
786-0 = experiment: NCI-60 screen (SRB), renal cancer; settings: Homo sapiens; for IC50: 786-0; for CC50: 786-0, read-out: LC50
M14 = experiment: NCI-60 screen (SRB), melanoma; settings: Homo sapiens; for IC50: M14; for CC50: M14, read-out: LC50
renal cancer cell lines = experiment: NCI-60 screen (SRB), renal cancer panel; assay type: cell-based; settings: Homo sapiens, single dose 10 μM, read-out: GI (growth inhibition), range over panel
Vero cell line = experiment: Cytotoxicity on Vero cell line (MTT); assay type: cell-based, African green monkey; settings: Vero IC50 / MIC M. tuberculosis H37Rv
[1] = Cytotoxicity on Vero cell line (MTT); assay type: cell-based, African green monkey; settings: African green monkey, Vero cells (African green monkey kidney, ATCC CCL-81); MTT, 24 h
[2] = system: Mycobacterium tuberculosis H37Rv (ATCC 27294); experiment: microbe, parasite or virus in culture; assay type: cell-based; settings: Mycobacterium tuberculosis; agar dilution SPOTi; read-out: MIC Against M. tuberculosis H37Rv
[3] = system: Mycobacterium bovis BCG (ATCC 35734); experiment: microbe, parasite or virus in culture; assay type: cell-based; settings: Mycobacterium tuberculosis variant bovis BCG, read-out: MIC Against M. bovis BCG

Structure (SMILES)	IC50 (IGROV1) [µM]	CC50 (IGROV1) [µM]	IC50 (MCF7) [µM]	CC50 (MCF7) [µM]	IC50 (CAKI-1) [µM]	CC50 (CAKI-1) [µM]	IC50 (SW-620) [µM]	CC50 (SW-620) [µM]	IC50 (OVCAR-4) [µM]	CC50 (OVCAR-4) [µM]	IC50 (OVCAR-5) [µM]	CC50 (OVCAR-5) [µM]	IC50 (SK-MEL-28) [µM]	CC50 (SK-MEL-28) [µM]	IC50 (U251) [µM]	CC50 (U251) [µM]	IC50 (HL-60(TB)) [µM]	CC50 (HL-60(TB)) [µM]	IC50 (DU-145) [µM]	CC50 (DU-145) [µM]	further results
COc1cc(OC)c(S(=O)(=O)N(CCCl)CCCl)cc1C(=O)/C=C/c1cc(OC)c(OC)c(OC)c1 [Compound 18e, (E)-N,N-bis(2-Chloroethyl)-2,4-dimethoxy-5-(3-(3,4,5-trimethoxyphenyl)acryloyl)benzenesulfonamide]	9.05	> 100	4.36	35.5	> 100	> 100	25.1	> 100	> 100	> 100	6.8	> 100	3.54	6.88	3.68	7.61	1.6	> 100	14.8	> 100	IC50 (786-0): 5.66 µM; CC50 (786-0): > 100 µM; IC50 (M14): 5.45 µM; CC50 (M14): > 100 µM
COc1cc(OC)c(S(N)(=O)=O)cc1C(=O)/C=C/c1ccc(Cl)cc1 [Compound 17b, (E)-5-(3-(4-Chlorophenyl)acryloyl)-2,4-dimethoxybenzenesulfonamide]	2.95	> 100	4.11	40.3	1.89	32.9	2.49	95.9	3.54	> 100	3.18	39	3.03	33.4	2.18	> 100	1.91	> 100	3.44	42.2	lethality (SW-620; SW-620, single dose 10 μM): 39.92%; inhibition at 10 µM (renal cancer cell lines): 78.5 to 100%; IC50 (786-0): 1.9 µM; CC50 (786-0): 9.83 µM; IC50 (M14): 1.47 µM; CC50 (M14): 6.7 µM
COc1cc(OC)c(S(N)(=O)=O)cc1C(=O)/C=C/c1ccc(C)cc1 [Compound 17c, (E)-2,4-Dimethoxy-5-(3-(p-tolyl)acryloyl)benzenesulfonamide]	3.56	72.4	2.48	54.1	2.42	35.2	3.43	75.8	3.66	53.2	2.57	27.2	4.09	40.8	2.66	32.7	2.52	> 100	4.23	65.1	IC50 (786-0): 3.85 µM; CC50 (786-0): > 100 µM; IC50 (M14): 3.25 µM; CC50 (M14): 56 µM
COc1cc(OC)c(S(N)(=O)=O)cc1C(=O)C=Cc1ccccc1 [Compound 17a, 5-Cinnamoyl-2,4-dimethoxybenzenesulfonamide]	9.74	77	0.97	62.5	1.86	39.5	2.68	48.5	11.8	55.9	13.2	53.7	12.5	51	2.92	39.2	2.27	> 100	1.88	38.1	Selectivity Index (SI) (SI = IC50/MIC) (Vero cell line): 0.04; IC50 at 24 h [1]: 1.06 ± 1.21 µM; inhibition at 10 µM (renal cancer cell lines): 66.2 to 100%; IC50 (786-0): 4.82 µM; CC50 (786-0): 63.2 µM; MIC [2]: 29 µM (≈ 10.1 µg/mL); MIC [3]: > 29 µM; IC50 (M14): 7.51 µM; CC50 (M14): 60.5 µM
